Test results as given in US4005100A, “Pyrazole-5-carboxamides” (Hoffmann-La Roche Inc., priority 1972, dated 1977).
Where “and” joins values, the source holds several entries; their conditions need not be identical. Equal entries are not always repeated.

How the values were obtained:
[1] = test system: streptozotocin-diabetic rats; assay: free fatty acid level (in % of controls) upon oral administration to streptozotocin-diabetic rats; type: in vivo, rat (Female Albino-rats)
Protocol: (§1) A compound encompassed by the formula I, namely, 3-methyl-N-(5-methyl-3,3-diphenyl-pyrrolin-2-yl)pyrazole-5-carboxamide, upon oral administration to maximal streptozotocin-diabetic rats gave the following values for the glucose and fatty acid levels (in % of controls):
(§2) The test procedure was that described by E. LORCH in Diabetologia 7, 195-203 (1971).
(§3) Female (140-160 gr) Albino-rats were starved (24 hrs) and refed (16 hrs) one week after Streptozotocin administration (60 mg/kg s.c.). Mean plasma glucose values: 500-600 mg/100 ml plasma. Diabetic starved-refed control animals received the suspension vehicle alone.

[2] = DL50 in the rat, single oral application; settings: in vivo, observation period 10 days
Description: The DL50 in the rat amounts to 8 g/kg (single oral application: observation period 10 days).

[3] = test system: streptozotocin-diabetic rats; assay: glucose level (in % of controls) upon oral administration to streptozotocin-diabetic rats; type: in vivo, rat (Female Albino-rats)
Protocol: as §1, §2, §3

[4] = 100 μmol/kg oral, 4 hours after application
[5] = 300 μmol/kg oral, 2 hours after application
[6] = 300 μmol/kg oral, 6 hours after application
[7] = 1000 μmol/kg oral, 4 hours after application

With `Cc1cc(C(=O)NC2=NC(C)CC2(c2ccccc2)c2ccccc2)[nH]n1` (stereo not drawn) [3-methyl-N-(5-methyl-3,3-diphenyl-1-pyrrolin-2-yl)-pyrazole-5-carboxamide] the Free fatty acids [1, 4] was 56 % of controls, the Free fatty acids [1, 5] was 59 % of controls and the Free fatty acids ([1]; 300 μmol/kg oral, 4 hours after application) was 72 % of controls and 62 % of controls. For the same compound, the Free fatty acids [1, 6] was 50 % of controls, the Free fatty acids [1, 7] was 57 % of controls and the LD50 at 240 h [2] was 8000 mg/kg. For the same compound, the Glucose ([3]; 100 μmol/kg oral, 2 hours after application) was 70 % of controls, the Glucose [3, 4] was 80 % of controls and 96 % of controls and 50 % of controls and the Glucose ([3]; 100 μmol/kg oral, 6 hours after application) was 60 % of controls. For the same compound, the Glucose [3, 5] was 76 % of controls and 70 % of controls, the Glucose [3, 6] was 71 % of controls and 59 % of controls and the Glucose [3, 7] was 89 % of controls and 80 % of controls.
